According to patent US11472807B2, “Purine derivatives for use as medicament and for use in treating neurodegenerative or neuro-inflammatory disorders” (COMMISSARIAT À L'ENERGIE ATOMIQUE ET AUX ENERGIES …, priority 2017, dated 2022):
Like-named read-outs stand apart in the source and are kept apart here.

Tests used:
[1] = tested on: GFAP and Iba-1 (microglial/astrocytes phenotype); test: GFAP and Iba-1 mRNA in OHSC (RT-qPCR); format: cell-based, mice; settings: 50 μM, 10 days
Experimental: FIG. 9. Plots illustrating the effect of Aftin-5 on relative mRNA expression levels of GFAP (left panel) and Iba-1 (right panel) in organotypic hippocampal slice cultures (OHSC). OHSC culture media […] were replaced by incubation medium containing Aftin-5 (50 μM; A50) or vehicle (0.1% DMSO; Veh). 10 days later, total mRNA in lysate was isolated and purified, cDNAs were then synthesized from […] of total mRNA. cDNA were amplified by quantitative RT-PCR and the relative expression of specific genes was normalized to the housekeeping gene HPRT1 (2^−ΔCt). Mann-Whitney tests were performed and show no significant differences between Aftin-5 and control conditions. Data expressed as means+/−SEM from q=3 independent experiments with n=4-6 inserts/condition and 10 slices/insert. […]
(§1) The impact of Aftin-5 on gene expression of different biomarkers was determined by measuring mRNA levels of selected BDNF, CREB, PS95, INS Receptor/IGF-1 receptor, IL-1β, IL-6 in OHSC treated chronically with Aftin-5 or in a total brain from mice exposed to Aftin-5 at either 8 or 30 mg/Kg. […] Threshold cycles (Ct) of target gene and cyclophilin A (Ppia−control housekeeping gene) were recorded and gene expression was calculated as 2^−ΔΔCt(ΔΔCt=ΔCttreated−ΔCtcontrol, ΔCt=Cttarget−CtPpia). […]

[2] = Pharmacokinetics of Aftin-5 in mice after single PO or IP dose; format: in vivo; settings: for Tmax / Cmax / Kp: mouse; for Kp: brain/plasma, read-out: brain/plasma partition coefficient (Kpbrain/plasma)
Description: In addition, pharmacokinetic experiments of Aftin-5 in mice confirmed the ability of the compound to reach the brain. The PK parameters are plotted in Table 3 below.
The brain/plasma partition coefficient (Kpbrain/plasma) was about 0.014 and 0.033 for oral and IP administration, respectively.

[3] = Brain and plasma exposure after chronic subcutaneous administration (Alzet osmotic pump); format: in vivo, C57Bl/6J mice; settings: C57Bl/6J, mouse, sc, 30 mg/kg, 28 days, mice, read-out: brain/plasma partition coefficient (Kpbrain/plasma)
Experimental: FIG. 5. Plots illustrating the effect of brain and plasma exposure after chronic subcutaneous administration of Aftin-5 to C57B16J mice. Due to short Aftin-5 elimination half-time, C57B1/6J mice were exposed subcutaneously to Aftin-5 (30 mg/kg) or vehicle (DMSO/PEG) during 28 days through an Alzet osmotic pump (pump 1004, Q=0.14 μL/hrs). Plasma was collected at different time points and 28 days after, both brain tissue and plasma were collected. Aftin-5 were extracted and quantified by LC-MS/MS (Quattro Premier). Aftin-5 concentrations in plasma (A) and brain (B) were expressed in nM. Data expressed as means+/−SEM from one experiment with n=4-5 mice/condition.
C57B1 were exposed subcutaneously to Aftin-5 using osmotic minipumps ([…]; Saint-Germain-Nuelles, France). Aftin-5 was dissolved in DMSO:propylene glycol:ethanol (45:45:10). Mice were treated with 1, 3 or 30 mg/Kg for 28 days. Filled pumps were left in saline overnight at 37° C. for priming. Mice were anesthetized with isoflurane (3-4% v/v, 1.5 mL/min) in an induction chamber and maintained under anesthesia through a mask. Mice were shaved on their back, disinfected and an incision made between the scapulae for pump implantation and finally closed with clips. 1% lidocaine gel was applied over the incision for local analgesia. Animals recovered from anesthesia in heated pads and immediately returned to the cages.

[4] = tested on: TNF-α, IL-1β and IL-6 mRNA; test: Cytokine mRNA in OHSC from transgenic 3×Tg-AD mice (RT-qPCR); format: cell-based, transgenic Tau mice (3×Tg-AD); settings: OHSC from transgenic mice overexpressing P-Tau, 50-150 μM, 10 days, vs vehicle
Experimental: FIG. 11. Plots illustrating the effect of Aftin-5 mediated attenuation of TNF-α (A) and IL-1β (B) and IL-6 (C) in organotypic hippocampal slice cultures from wild type mice (C57BI/6J) and transgenic Tau mice (3×Tg-AD). 3 Tg organotypic hippocampal slice cultures media were replaced by incubation medium containing Aftin-5 at 50 μM (A50), 100 μM (A100) and 150 μM (A150) or vehicle (0.1% DMSO; Veh). After chronic treatment (10 days) total mRNA in lysate was isolated and purified, cDNAs were then synthesized from […] of total mRNA. cDNAs were amplified by quantitative RT-PCR and the relative expression of specific genes was normalized to the housekeeping gene HPRT1 (2^−ΔCt). […] Data expressed as means+/−SEM (n=2-6 wells/condition) from q=2 independent experiments with n=2-6 inserts/conditions and 10 slices/insert. […]
as §1

[5] = plasma, IP single dose 10 mg/kg

- AUC0-∞ ([2]; brain, IP single dose 10 mg/kg): 441.51 nMh
- t^1/2 ([2]; brain, IP single dose 10 mg/kg): 0.6 h
- AUC0-∞ ([2]; brain, PO single dose 5 mg/kg): 115.25 nMh
- t^1/2 ([2]; brain, PO single dose 5 mg/kg): 1.8 h
- Tmax ([2]; brain, IP single dose 10 mg/kg): 4.98 min
- Tmax ([2]; brain, PO single dose 5 mg/kg): 15 min
- Cmax ([2]; brain, ip, 10 mg/kg, IP single dose 10 mg/kg): ~807 nM
- Cmax ([2]; brain, po, 5 mg/kg, PO single dose 5 mg/kg): ~44.9 nM
- Kp ([2]; IP administration, single dose 10 mg/kg): ~0.033
- Kp ([2]; oral administration, single dose 5 mg/kg): ~0.014
- Tmax [2, 5]: 4.98 min
- Tmax ([2]; plasma, PO single dose 5 mg/kg): 15 min
- Cmax ([2]; plasma, ip, 10 mg/kg, IP single dose 10 mg/kg): 22600 nM
- Cmax ([2]; plasma, po, 5 mg/kg, PO single dose 5 mg/kg): 3890 nM
- AUC0-∞ [2, 5]: 13577.63 nMh
- t^1/2 [2, 5]: ~1.2 h
- Kp at 672 h [3]: ~0.44
Structure (SMILES): CC[C@H](CO)Nc1nc(N(C)c2ccccc2)c2ncn(C(C)C)c2n1 [Aftin-5]
- microglial/astrocytes phenotype (GFAP, Iba-1 mRNA) [1]: does not affect
- cytokine-mRNA synthesis (TNF-α, IL-1β, IL-6) [4]: decreases
